Values after ≈ are worked out from the molar mass of the structure shown. Read-outs that look alike come from different tables or passages of the source.
Key:
[1] = tested on: CLBL-1 cell line (canine B-cell lymphoma); experiment: MTT assay, antiproliferative activity against CLBL-1; format: cell-based; conditions: for IC50: Canis lupus familiaris, CLBL-1, 72 h of exposure, MTT, mean ± SD; for SI CLBL-1: ratio IC50 NIH/3T3 / IC50 CLBL-1
Description: (§1) The CLB70 cell line (canine chronic B-cell lymphocytic leukemia) was established at the Department of Pharmacology and Toxicology, Wrocław University of Environmental and Life Sciences. The CLBL-1 cell line (canine B-cell lymphoma) was kindly provided by Dr. Barbara C. Rütgen from the Institute of Immunology, Department of Pathobiology, University of Veterinary Medicine, Vienna. The T-24 (human bladder carcinoma), Caco-2 (human colorectal adenocarcinoma), and NIH/3T3 (mouse embryonic fibroblasts) cell lines were purchased from the American Type Culture Collection (ATCC, Rockville, MD, USA).
(§2) Cell cultures were maintained in their respective growth media, with fetal bovine serum (FBS) concentrations ranging from 10% to 20%, depending on the cell line. Penicillin-streptomycin (PS) and L-glutamine (L-Glu) were consistently added at 1% each to all media. CLB70 cells were cultured in RPMI ADVANCE medium supplemented with 20% FBS, while CLBL-1 cells were maintained in RPMI-1640 medium with 20% FBS. T-24 cells were cultured in McCoy′s 5A medium with 10% FBS, and Caco-2 cells in Eagle′s Minimum Essential Medium (EMEM) with 20% FBS. NIH/3T3 cells were maintained in high-glucose DMEM (DMEM HG) with 10% FBS. All cell cultures were grown in T-75 flasks under a humidified atmosphere at 37 °C and 5% CO2 and passaged every 3 days to maintain optimal cell density (70–80% confluence).
(§3) Stock solutions used in the experiments were freshly prepared for each trial by dissolving the tested compounds in biological-grade DMSO. These stock solutions were then diluted with the culture medium appropriate for each specific cell line to achieve the desired final concentrations, which ranged from 3.125 to 100 µM. The final DMSO concentration in each well was maintained below 1%, a level generally considered non-toxic to cells. The MTT assay was employed to evaluate the antiproliferative and cytotoxic effects of the compounds on cancer cell lines, following a previously described protocol with minor modifications. Cells were seeded in 96-well plates at the following densities: 1.5 × 10^4 cells/mL (NIH/3T3), 2 × 10^4 cells/mL (T-24, Caco-2), and 3 × 10^5 cells/mL (CLB70, CLBL-1). Each plate included control wells with untreated cells and wells with vehicle controls (culture medium specific to each cell line).
(§4) After 72 h of treatment with the tested compounds, 10 µL of 3-(4,5-dimethylthiazol-2-yl)-2,5-diphenyltetrazolium bromide (MTT) solution (5 mg/mL) was added to each well. The cells were subsequently incubated with MTT for an additional 3 h to allow the formation of formazan crystals. Following this, 40 µL of lysis buffer (composed of 46 g sodium dodecyl sulfate, 150 mL dimethylformamide, and 183.2 mL Milli-Q water) was added to each well to dissolve the formazan. After a 24 h incubation at room temperature, the optical density (OD) of the resulting formazan product was measured using a spectrophotometric microplate reader (Spark, Tecan, Männedorf, Switzerland) at 570 nm.
(§5) The results were determined from three independent experiments (four wells each) and presented as mean IC50 value ± SD from at least […], each performed in quadruplicate. IC50 values (the concentration of the compound required to inhibit 50% of cell growth) were calculated from dose–response curves.

[2] = tested on: CLB70 cell line (canine chronic B-cell lymphocytic leukemia); experiment: MTT assay, antiproliferative activity against CLB70; format: cell-based; conditions: for IC50: Canis lupus familiaris, CLB70, 72 h of exposure, MTT, mean ± SD; for SI CLB70: ratio IC50 NIH/3T3 / IC50 CLB70
Description: as §1, §2, §3, §4, §5

[3] = tested on: T-24 (human bladder carcinoma); experiment: MTT assay, antiproliferative activity against T-24; format: cell-based; conditions: for antiproliferative activity against T-24 (in words): 72 h, up to 100 µM; for antiproliferative activity against T-24 (in words) / IC50: MTT; for IC50: Homo sapiens, 72 h of exposure, mean ± SD; for SI T-24: ratio IC50 NIH/3T3 / IC50 T-24
Description: as §1, §2, §3, §4, §5

[4] = tested on: CaCo-2 (human colorectal adenocarcinoma); experiment: MTT assay, antiproliferative activity against CaCo-2; format: cell-based; conditions: for antiproliferative activity against CaCo-2 (in words): 72 h, up to 100 µM; for antiproliferative activity against CaCo-2 (in words) / IC50: MTT; for IC50: Homo sapiens, Caco-2, 72 h of exposure, mean ± SD; for SI CaCo-2: ratio IC50 NIH/3T3 / IC50 CaCo-2
Description: as §1, §2, §3, §4, §5

[5] = tested on: NIH/3T3 (mouse embryonic fibroblasts); experiment: MTT assay, normal cell line NIH/3T3; format: cell-based; conditions: NIH3T3, 72 h of exposure
Description: as §1, §2, §3, §4, §5

[6] = Quantitative hemolysis assay on red blood cells; format: cell-based; conditions: human, pH 7.4; 72 h incubation, highest concentration (200 μM)
Procedure: To evaluate the hemolytic activity and cytotoxicity of the tested compounds, a quantitative hemolysis assay was conducted using human red blood cells (RBCs), following the method described by Pruchnik et al., with minor modifications.
RBCs were obtained from healthy donors through the Blood Donation Center in Wrocław. […] The collected RBCs were gently resuspended and washed three times with cold isotonic phosphate-buffered saline (PBS, pH 7.4) to remove plasma and cellular debris.
All tested compounds were dissolved in biological-grade DMSO. A series of working solutions was prepared by diluting the stock solutions to final concentrations of 6.25, 12.50, 25, 50, 100, and 200 μM. […] Control samples contained no tested compounds, while vehicle control samples contained DMSO at the same concentration as the treated samples. Positive control samples (A100%) were prepared by inducing complete hemolysis with Milli-Q water. All experiments were performed in triplicate, with three independent replicates for each condition.
The erythrocyte suspension was adjusted to a final hematocrit of 1.2% in all test tubes, with a total sample volume of 1 mL. Samples were incubated at 37 °C under static conditions for 2, 24, and 72 h to assess both short- and long-term cytotoxic effects.
Following incubation, all samples were centrifuged at 5000 rpm for 3 min at room temperature. The supernatants were carefully transferred to a 96-well plate, and the absorbance of free hemoglobin was measured at 540 nm using a UV-Vis microplate spectrophotometer (EPOCH, BioTek, Santa Clara, CA, USA). The degree of in vitro hemolysis was calculated based on the amount of released hemoglobin relative to that in the completely hemolyzed positive control sample, according to the following formula: H[%]=As/A100%×100%, where H [%] is the percentage of erythrocyte hemolysis, As is absorbance of hemoglobin in supernatant at 540 nm, and A100% refers to the absorbance of hemoglobin in the supernatant following complete hemolysis of the erythrocytes.

[7] = tested on: T-24 cell line; design: method as in earlier work; conditions: 48 h of incubation; cited from earlier work
[8] = tested on: CLB-70 line; conditions: cited from earlier work
[9] = tested on: Caco-2 line; design: method as in PMID 33198146; conditions: 48 h of incubation; cited from earlier work
[10] = tested on: CLBL-1; conditions: 72 h of incubation; cited from earlier work

Compound: COc1cc([C@H]2CC(=O)O[C@@H](C)[C@@H]2Cl)ccc1O (racemic) [12b, 5-t-Chloro-4-r-(4′-Hydroxy-3′-methoxyphenyl)-6-c-methyltetrahydropyran-2-one]
- IC50 [1]: 85.7 ± 15.7 µM
- SI CLBL-1 [1]: >1.2
- IC50 [2]: 71.2 ± 11.6 µM
- SI CLB70 [2]: >1.4
- antiproliferative activity against T-24 (in words) [3]: inactive
- IC50 [3]: > 100 µM
- antiproliferative activity against CaCo-2 (in words) [4]: moderate activity
- IC50 [4]: 72.5 ± 19.8 µM
- SI CaCo-2 [4]: >1.4
- IC50 [5]: > 100 µM
- hemolysis at 72 h, 200 µM [6]: 10.5%

Compound: COc1cccc2c1C(=O)c1c(O)c3c(c(O)c1C2=O)C[C@@](O)(C(=O)CO)C[C@@H]3O[C@H]1C[C@H](N)[C@H](O)[C@H](C)O1 [doxorubicin]
- IC50 [7]: 0.06 µM
- IC50 ([8]; 48 h of incubation): 0.07 µM
- IC50 Caco-2 [9]: 2.41 µg/mL (≈ 4.43 µM)
- IC50 [10]: < 0.09 µM

Compound: COc1cc([C@@H]2CC(=O)O[C@@H]2C(C)Br)ccc1O (relative stereo) [11a, Cis-5-(1-Bromoethyl)-4-(4′-hydroxy-3′-methoxyphenyl)dihydrofuran-2-one]
- IC50 [1]: 63.2 ± 1.6 µM
- SI CLBL-1 [1]: >1.6
- IC50 [2]: 76.2 ± 5.3 µM
- SI CLB70 [2]: >1.3
- antiproliferative activity against T-24 (in words) [3]: inactive
- IC50 [3]: > 100 µM
- antiproliferative activity against CaCo-2 (in words) [4]: moderate activity
- IC50 [4]: 76.4 ± 10 µM
- SI CaCo-2 [4]: >1.3
- IC50 [5]: > 100 µM
- hemolysis at 72 h, 200 µM [6]: 10.3%

Compound: COc1cc([C@@H]2CC(=O)O[C@@H]2C(C)Cl)ccc1O (relative stereo) [12a, Cis-5-(1-Chloroethyl)-4-(4′-hydroxy-3′-methoxyphenyl)dihydrofuran-2-one]
- IC50 [1]: 76.7 ± 11.5 µM
- SI CLBL-1 [1]: >1.3
- IC50 [2]: 75.2 ± 6.3 µM
- SI CLB70 [2]: >1.3
- antiproliferative activity against T-24 (in words) [3]: inactive
- IC50 [3]: > 100 µM
- antiproliferative activity against CaCo-2 (in words) [4]: moderate activity
- IC50 [4]: 88.1 ± 4.4 µM
- SI CaCo-2 [4]: >1.1
- IC50 [5]: > 100 µM

Compound: COc1cc([C@@H]2CC(=O)O[C@@H]2C(C)I)ccc1O (relative stereo) [10a, Cis-4-(4′-Hydroxy-3′-methoxyphenyl)-5-(1-iodoethyl)dihydrofuran-2-one]
- IC50 [1]: 73.6 ± 8.8 µM
- SI CLBL-1 [1]: >1.4
- IC50 [2]: 69.7 ± 13.7 µM
- SI CLB70 [2]: >1.4
- antiproliferative activity against T-24 (in words) [3]: demonstrated activity
- IC50 [3]: 98.1 ± 10.4 µM
- SI T-24 [3]: >1.0
- IC50 [4]: > 100 µM
- IC50 [5]: > 100 µM

Compound: COc1cc([C@@H]2CC(=O)O[C@H]2C(C)I)ccc1O (relative stereo) [10b, Trans-4-(4′-Hydroxy-3′-methoxyphenyl)-5-(1-iodoethyl)dihydrofuran-2-one]
- IC50 [1]: 46.3 ± 4.1 µM
- SI CLBL-1 [1]: >2.2
- IC50 [2]: 71.5 ± 7.5 µM
- SI CLB70 [2]: >1.4
- antiproliferative activity against T-24 (in words) [3]: demonstrated activity
- IC50 [3]: 63.4 ± 6.2 µM
- SI T-24 [3]: >1.6
- IC50 [4]: > 100 µM
- IC50 [5]: > 100 µM
- hemolysis at 72 h, 200 µM [6]: 11%

Compound: COc1cc(C=O)ccc1O [compound 1, Vanillin]
- IC50 [1]: 72.4 ± 9.4 µM
- SI CLBL-1 [1]: >1.4 ^2
- IC50 [2]: 72.8 ± 2.3 µM
- SI CLB70 [2]: >1.4
- IC50 [3]: 48.5 ± 13.2 µM
- SI T-24 [3]: >2.1
- antiproliferative activity against CaCo-2 (in words) [4]: inactive
- IC50 [4]: > 100 µM
- IC50 [5]: > 100 µM

Compound: Cc1ccc(C)c([C@H]2CC(=O)O[C@@H](C)[C@@H]2Br)c1 (single isomer, unassigned)
- IC50 ([8]; previously studied analog, reference not given, read-out: IC50 CLB70): 106 µM

— PMC12609600, “Novel Halolactones Derived from Vanillin: Design, Synthesis, Structural Characterization, and Evaluation of Antiproliferative and Hemolytic Activities” (Molecules, 2025)
